These results are taken from patent US8138174B2, “Compounds with a combination of cannabinoid CB1 antagonism and serotonin reuptake inhibition” (Solvay Pharmaceuticals B.V., priority 2007, dated 2012).

Like-named read-outs stand apart in the source and are kept apart here. Some results are limits rather than exact numbers.

The target in experiment [1] is human cannabinoid CB1 receptor (Homo sapiens, UniProt P21554). The experiment can be described thus: In vitro affinity for human cannabinoid CB1 receptors ([3H]CP-55,940 binding, CHO cell membranes). To be noted: radioligand [3H]-CP-55,940; membranes of CHO cells stably transfected with human CB1 receptor; read-out: CB1 receptor binding [3H]-CP-55,940 pKi (converted). How it is done: In vitro affinity for human cannabinoid CB1 receptors
Chain of human cannabinoid CB1 receptor (P21554 whole entry): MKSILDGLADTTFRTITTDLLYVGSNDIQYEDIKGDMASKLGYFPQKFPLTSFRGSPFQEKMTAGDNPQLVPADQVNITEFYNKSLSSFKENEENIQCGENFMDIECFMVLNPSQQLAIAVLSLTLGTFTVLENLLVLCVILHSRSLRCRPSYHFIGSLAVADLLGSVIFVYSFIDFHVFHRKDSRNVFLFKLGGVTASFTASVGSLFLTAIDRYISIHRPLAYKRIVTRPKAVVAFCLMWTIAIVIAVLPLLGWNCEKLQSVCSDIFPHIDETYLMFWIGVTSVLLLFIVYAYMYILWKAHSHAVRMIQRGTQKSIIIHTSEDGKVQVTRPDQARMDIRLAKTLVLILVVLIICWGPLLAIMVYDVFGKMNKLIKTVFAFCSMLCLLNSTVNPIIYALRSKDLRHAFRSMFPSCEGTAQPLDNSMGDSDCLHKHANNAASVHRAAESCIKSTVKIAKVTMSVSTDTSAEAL
After incubation of a freshly prepared cell membrane preparation with the [^3H]-ligand, with or without addition of compounds of the invention, separation of bound and free ligand is performed by filtration over glassfiber filters. Radioactivity on the filter is measured by liquid scintillation counting.

The target in experiment [2] is T1, serotonin reuptake sites (Rattus norvegicus, UniProt P31652).
T1 construct: from tissue
T1 sequence (P31652 whole entry): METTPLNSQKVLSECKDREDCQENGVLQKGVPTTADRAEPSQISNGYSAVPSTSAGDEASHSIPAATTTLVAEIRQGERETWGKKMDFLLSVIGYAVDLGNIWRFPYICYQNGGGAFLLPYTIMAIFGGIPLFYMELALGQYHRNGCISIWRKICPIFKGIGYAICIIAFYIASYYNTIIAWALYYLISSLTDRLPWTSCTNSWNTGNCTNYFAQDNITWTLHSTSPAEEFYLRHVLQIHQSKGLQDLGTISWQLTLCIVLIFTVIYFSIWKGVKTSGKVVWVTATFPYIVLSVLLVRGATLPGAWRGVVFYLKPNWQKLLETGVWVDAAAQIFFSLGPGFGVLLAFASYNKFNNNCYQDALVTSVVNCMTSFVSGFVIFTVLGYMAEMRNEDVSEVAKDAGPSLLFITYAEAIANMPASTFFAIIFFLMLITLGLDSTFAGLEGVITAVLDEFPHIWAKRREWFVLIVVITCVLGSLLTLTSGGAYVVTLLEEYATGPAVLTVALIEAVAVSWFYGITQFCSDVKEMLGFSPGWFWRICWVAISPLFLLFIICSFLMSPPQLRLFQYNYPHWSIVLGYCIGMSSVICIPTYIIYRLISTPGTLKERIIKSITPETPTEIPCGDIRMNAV
Kind of experiment: In vitro affinity for serotonin reuptake sites ([3H]-paroxetine binding, Habert 1985).

[3] abbreviates: radioligand [3H]-paroxetine, read-out: 5-HT reuptake binding [3H]-paroxetine pKi (converted).

As to `CCc1c(C(=O)NCCCCCCC(=NOCCN)c2ccc(C(F)(F)F)cc2)nc(-c2ccccc2Cl)n1-c1ccc(Cl)cc1` (racemic) [Compound 2, 2-(2-Chlorophenyl)-1-(4-chlorophenyl)-5-ethyl-1H-imidazole-4-carboxylic acid [7-(2-amino-ethoxyimino)-7-[4-(trifluoromethyl)phenyl]heptyl]amide], the Ki in experiment [1] was 0.0398 µM; in experiment [2] (setting [3]) it was 0.2 µM. Consider `NCCO/N=C(/CCCCCCN/C(=N/S(=O)(=O)c1ccc(Cl)cc1)N1CC(c2ccccc2)C(c2ccc(Cl)cc2)=N1)c1ccc(C(F)(F)F)cc1` (stereo not shown) [Compound 1], for which the Ki in experiment [1] was 0.251 µM; in experiment [2] (setting [3]), 0.0158 µM. Besides, the “affinity for 5-HT reuptake sites / serotonin reuptake inhibition (in words)” value in experiment [2] is recorded as “as potent a serotonin reuptake inhibitor as fluoxetine”. For `CCc1c(C(=O)N2CCN(CCCCc3c[nH]c4ccc(F)cc34)CC2)nc(-c2ccccc2Cl)n1-c1ccc(Cl)cc1` [Compound 3, [2-(2-Chlorophenyl)-1-(4-chlorophenyl)-5-ethyl-1H-imidazole-4-yl] {4-[4-(5-flouro-1H-indol-3-yl)butyl]piperazin-1-yl}methanone], the Ki in experiment [1] was 0.0316 µM; in experiment [2] (setting [3]) it was 0.02 µM. Consider `O=S(=O)(/N=C(/N1CCN(CCCCc2c[nH]c3ccc(F)cc23)CC1)N1CC(c2ccccc2)C(c2ccc(Cl)cc2)=N1)c1ccc(Cl)cc1` (stereo not shown) [Compound 4], for which the results for the Ki in experiment [1] and in experiment [2] (setting [3]) were 0.251 µM and 0.0251 µM, respectively. For the compound `CN=C(NS(=O)(=O)c1ccc(Cl)cc1)N1C[C@H](c2ccccc2)C(c2ccc(Cl)cc2)=N1` [SLV319], the Ki in experiment [2] (setting [3]) is over 10 µM. On to `CCc1c(C(=O)NN2CCCCC2)nc(-c2ccccc2Cl)n1-c1ccc(Cl)cc1` [WO 03/027076], for which the “affinity for 5-HT reuptake sites / serotonin reuptake inhibition (in words)” value in experiment [2] was “completely inactive”. Moreover, in experiment [2] (read-out: 5-HT reuptake binding [3H]-paroxetine pKi (converted)), the Ki was over 31.6 µM.

As to `CN(C)CCC=C1c2ccccc2CCc2ccccc21` [amitriptyline], the Ki in experiment [1] is over 10 µM. The same measure, in the same setting: the figure for `CN(C)CCCC1(c2ccc(F)cc2)OCc2cc(C#N)ccc21` (stereo not shown) [citalopram] is over 10 µM.

`Fc1ccc2[nH]cc(CCCCN3CCNCC3)c2c1` [compound A]: the results for the Ki in experiment [1] and in experiment [2] were over 1 µM and 0.00126 µM, respectively. As for `CN(C)CCCN1c2ccccc2CCc2ccccc21` [imipramine], the Ki in experiment [1] is over 1 µM. In the case of `c1ccc2c(CCC3CCNCC3)c[nH]c2c1` [indalpine], in experiment [1], the Ki is over 1 µM. Besides, in experiment [2] (radioligand [3H]-paroxetine), the “5-HT reuptake binding [3H]-paroxetine pKi” value was 8.6.

As to `Fc1ccc([C@@H]2CCNC[C@H]2COc2ccc3c(c2)OCO3)cc1` [paroxetine], in experiment [1], the Ki was over 1 µM.

Consider `Cc1c(C(=O)NN2CCCCC2)nn(-c2ccc(Cl)cc2Cl)c1-c1ccc(Cl)cc1` [rimonabant], for which, in experiment [2] (setting [3]), the Ki was 5.01 µM. Take `CN[C@H]1CC[C@@H](c2ccc(Cl)c(Cl)c2)c2ccccc21` [sertraline]: in experiment [1], the Ki is over 10 µM.
